Tested on: subjects with COPD
Test: Phase IIa placebo-controlled crossover dose-ranging study, heart rate (vital signs) after single inhaled dose
Type: in vivo, human
Settings: for Adjusted Mean for Average Change in Heart Rate from Test day Baseline: ANCOVA
Protocol: The study was a Phase IIa, multi-centre, randomised, double-blind, placebo-controlled, crossover, dose-ranging study using four dose levels of glycopyrronium bromide in subjects with COPD. A total of 40 subjects were required to complete the study.
Subjects were randomised to receive a single inhaled dose of 20, 125, 250 and 400 μg of glycopyrronium bromide in ascending order, with a placebo dose randomised into the sequence over 5 study visits. Subjects were randomised to receive treatment on Study Day 1 prior to dosing. All doses, including placebo, were administered using the Miat Monohaler.
The Treatment period then consisted of five study visits (separated by a 5-14-day wash-out period), during which subjects were dosed with a single inhaled dose of glycopyrronium bromide using a Miat Monohaler, in ascending order (20, 125, 250 or 400 μg). A placebo was randomly administered (using a Miat Monohaler) at one of the study visits; subsequent visits continued with the next highest dose of glycopyrronium bromide to that which was administered prior to the placebo.
All subjects were scheduled to be dosed between 08:00 and 10:00 am. For individual subjects, dosing was at the same time of day (±30 minutes). At each dosing visit, subjects received a single dose of glycopyrronium bromide or placebo administered via Miat Monohaler. Each different dose (20, 125, 250 or 400 μg) was contained in one capsule. An appropriate number of Miat Monohalers to conduct the study was also supplied to the site. A new Miat Monohaler was used to administer each dose at each visit.
copyrronium bromide was presented in size 3, white opaque, hard, gelatin capsules packaged in aluminium pouches. The capsules were presented in four dose strengths containing 20, 125, 250, or 400 μg glycopyrronium bromide. In addition to glycopyrronium bromide, excipient present in the capsule formulation consisted of the PowderHale^TM formulation of lactose and magnesium stearate.
All vital signs were measured on each study day, including heart rate (with the subject semi-supine for 5 minutes prior to measurement); blood pressure; respiratory rate and temperature were measured at each visit and before receiving study medication (pre-treatment), if applicable. Blood pressure and heart rate were also measured at 45, 90 minutes and 5, 10, 20 and 30 hours post-treatment on study days.
The statistical analyses were to be reported using summary tables and data listings. Statistical tests for the evaluation were to be performed at the 0.05 significance level using a two-sided test.
All analyses and tabulations were to be performed using SASS Version 6.12 on a PC platform. Continuous variables were to be summarised with sample size (n), mean, standard deviation (SD), minimum, median, and maximum. […] The mean was to have one extra decimal place and the standard deviation was to have two extra decimal places. Categorical variables were to be summarised with number and percentage of subjects.

[1] = 250 μg single inhaled dose, 90 mins post-dose
[2] = 250 μg single inhaled dose, 5 hrs post-dose
[3] = 250 μg single inhaled dose, 10 hrs post-dose
[4] = 250 μg single inhaled dose, 20 hrs post-dose
[5] = 250 μg single inhaled dose, 30 hrs post-dose
[6] = 250 μg single inhaled dose, pre-dose to 45 mins post-dose
[7] = 250 μg single inhaled dose, pre-dose to 90 mins post-dose
[8] = 250 μg single inhaled dose, pre-dose to 5 hours post-dose
[9] = 250 μg single inhaled dose, pre-dose to 10 hours post-dose
[10] = 250 μg single inhaled dose, pre-dose to 20 hours post-dose
[11] = 250 μg single inhaled dose, pre-dose to 30 hours post-dose
[12] = 400 μg single inhaled dose, 45 mins post-dose
[13] = 400 μg single inhaled dose, 90 mins post-dose
[14] = 400 μg single inhaled dose, 5 hrs post-dose
[15] = 400 μg single inhaled dose, 10 hrs post-dose
[16] = 400 μg single inhaled dose, 20 hrs post-dose
[17] = 400 μg single inhaled dose, 30 hrs post-dose
[18] = 400 μg single inhaled dose, pre-dose to 45 mins post-dose
[19] = 400 μg single inhaled dose, pre-dose to 90 mins post-dose
[20] = 400 μg single inhaled dose, pre-dose to 10 hours post-dose
[21] = 400 μg single inhaled dose, pre-dose to 30 hours post-dose

## C[N+]1(C)CCC(OC(=O)C(O)(c2ccccc2)C2CCCC2)C1 (stereo not drawn) [glycopyrronium bromide]
250 μg single inhaled dose, 45 mins post-dose
  Heart Rate Median: 64.0 bpm
[1]
  Heart Rate Mean: 68.2 bpm
  Heart Rate Median: 69.0 bpm
[2]
  Heart Rate Mean: 68.4 bpm
  Heart Rate Median: 68.5 bpm
[3]
  Heart Rate Mean: 66.3 bpm
  Heart Rate Median: 65.0 bpm
[4]
  Heart Rate Mean: 66.6 bpm
  Heart Rate Median: 65.0 bpm
[5]
  Heart Rate Mean: 70.7 bpm
  Heart Rate Median: 71.5 bpm
[6]
  Heart Rate Change from Test day Baseline, Mean: −4.6 bpm
  Heart Rate Change from Test day Baseline, Median: −4.5 bpm
[7]
  Heart Rate Change from Test day Baseline, Mean: −1.7 bpm
  Heart Rate Change from Test day Baseline, Median: −1.0 bpm
[8]
  Heart Rate Change from Test day Baseline, Mean: −1.4 bpm
  Heart Rate Change from Test day Baseline, Median: 0.0 bpm
[9]
  Heart Rate Change from Test day Baseline, Mean: −3.6 bpm
  Heart Rate Change from Test day Baseline, Median: −4.0 bpm
[10]
  Heart Rate Change from Test day Baseline, Mean: −3.4 bpm
  Heart Rate Change from Test day Baseline, Median: −4.0 bpm
[11]
  Heart Rate Change from Test day Baseline, Mean: 1.0 bpm
  Heart Rate Change from Test day Baseline, Median: 2.5 bpm
250 μg, to 45 mins post-dose
  Adjusted Mean for Average Change in Heart Rate from Test day Baseline: −3.693 bpm
250 μg, to 45 mins post-dose, p-value 0.324
  Dose v Placebo Difference, adjusted mean change in Heart Rate from Test day Baseline: −1.364 bpm
250 μg, to 90 mins post-dose
  Adjusted Mean for Average Change in Heart Rate from Test day Baseline: −0.763 bpm
250 μg, to 90 mins post-dose, p-value 0.203
  Dose v Placebo Difference, adjusted mean change in Heart Rate from Test day Baseline: −2.035 bpm
250 μg, to 5 hours post-dose
  Adjusted Mean for Average Change in Heart Rate from Test day Baseline: −0.586 bpm
250 μg, to 5 hours post-dose, p-value 0.072
  Dose v Placebo Difference, adjusted mean change in Heart Rate from Test day Baseline: −2.633 bpm
250 μg, to 10 hours post-dose
  Adjusted Mean for Average Change in Heart Rate from Test day Baseline: −4.657 bpm
250 μg, to 10 hours post-dose, p-value 0.078
  Dose v Placebo Difference, adjusted mean change in Heart Rate from Test day Baseline: −2.832 bpm
250 μg, to 20 hours post-dose
  Adjusted Mean for Average Change in Heart Rate from Test day Baseline: −1.858 bpm
250 μg, to 20 hours post-dose, p-value 0.773
  Dose v Placebo Difference, adjusted mean change in Heart Rate from Test day Baseline: −0.390 bpm
250 μg, to 30 hours post-dose
  Adjusted Mean for Average Change in Heart Rate from Test day Baseline: 1.436 bpm
250 μg, to 30 hours post-dose, p-value 0.581
  Dose v Placebo Difference, adjusted mean change in Heart Rate from Test day Baseline: 0.817 bpm
400 μg dose, 45 minute to 10 hour timepoints inclusive
  Statistical significance (p) of heart rate change relative to placebo: < 0.05
[12]
  Heart Rate Mean: 65.4 bpm
  Heart Rate Median: 65.0 bpm
[13]
  Heart Rate Mean: 67.1 bpm
  Heart Rate Median: 67.5 bpm
[14]
  Heart Rate Mean: 69.7 bpm
  Heart Rate Median: 69.0 bpm
[15]
  Heart Rate Mean: 65.7 bpm
  Heart Rate Median: 65.5 bpm
[16]
  Heart Rate Mean: 66.7 bpm
  Heart Rate Median: 66.0 bpm
[17]
  Heart Rate Mean: 70.9 bpm
  Heart Rate Median: 70.0 bpm
[18]
  Heart Rate Change from Test day Baseline, Mean: −7.4 bpm
  Heart Rate Change from Test day Baseline, Median: −6.5 bpm
[19]
  Heart Rate Change from Test day Baseline, Mean: −5.7 bpm
  Heart Rate Change from Test day Baseline, Median: −4.5 bpm
400 μg single inhaled dose, pre-dose to 5 hours post-dose
  Heart Rate Change from Test day Baseline, Mean: −3.1 bpm
[20]
  Heart Rate Change from Test day Baseline, Mean: −6.4 bpm
  Heart Rate Change from Test day Baseline, Median: −5.5 bpm
400 μg single inhaled dose, pre-dose to 20 hours post-dose
  Heart Rate Change from Test day Baseline, Mean: −5.6 bpm
[21]
  Heart Rate Change from Test day Baseline, Mean: −1.4 bpm
  Heart Rate Change from Test day Baseline, Median: 0.0 bpm
400 μg, to 45 mins post-dose
  Adjusted Mean for Average Change in Heart Rate from Test day Baseline: −7.052 bpm
400 μg, to 45 mins post-dose, p-value 0.005
  Dose v Placebo Difference, adjusted mean change in Heart Rate from Test day Baseline: −4.723 bpm
400 μg, to 90 mins post-dose
  Adjusted Mean for Average Change in Heart Rate from Test day Baseline: −4.315 bpm
400 μg, to 90 mins post-dose, p-value 0.004
  Dose v Placebo Difference, adjusted mean change in Heart Rate from Test day Baseline: −5.587 bpm
400 μg, to 5 hours post-dose
  Adjusted Mean for Average Change in Heart Rate from Test day Baseline: −3.455 bpm
400 μg, to 5 hours post-dose, p-value 0.002
  Dose v Placebo Difference, adjusted mean change in Heart Rate from Test day Baseline: −5.502 bpm
400 μg, to 10 hours post-dose
  Adjusted Mean for Average Change in Heart Rate from Test day Baseline: −6.919 bpm
400 μg, to 10 hours post-dose, p-value 0.008
  Dose v Placebo Difference, adjusted mean change in Heart Rate from Test day Baseline: −5.095 bpm
400 μg, to 20 hours post-dose
  Adjusted Mean for Average Change in Heart Rate from Test day Baseline: −2.371 bpm
400 μg, to 20 hours post-dose, p-value 0.583
  Dose v Placebo Difference, adjusted mean change in Heart Rate from Test day Baseline: −0.903 bpm
400 μg, to 30 hours post-dose
  Adjusted Mean for Average Change in Heart Rate from Test day Baseline: 0.475 bpm
400 μg, to 30 hours post-dose, p-value 0.935
  Dose v Placebo Difference, adjusted mean change in Heart Rate from Test day Baseline: −0.143 bpm
20-400 μg inhaled, up to 5 hours post-dose
  Mean heart rate from Test Day Baseline, dose relation: dose dependent decrease
Any of the inhaled doses, up to 30 hours
  Subsequent tachycardic effect: not evident

Source: patent publication US10695321B2, “Use of glycopyrrolate for treating tachycardia” (Heptares Therapeutics Limited, priority 2011, dated 2020)
